The numbers were not newly measured in patent publication US20110206661A1, “TRIMETHOXYPHENYL INHIBITORS OF TYROSINE KINASE” (AUSPEX PHARMACEUTICALS, INC., priority 2010, published 2011), which cites them from elsewhere.

SMILES strings stand for the structures.

For this data set the following is noted: human plasma after oral administration of fostamatinib.

Consider `COc1cc(Nc2ncc(F)c(Nc3ccc4c(n3)N(COP(=O)(O)O)C(=O)C(C)(C)O4)n2)cc(OC)c1OC` [Fostamatinib, 6-[[5-fluoro-2-[(3,4,5-trimethoxyphenyl)amino]-4-pyrimidinyl]amino]-2,2-dimethyl-4-[(phosphonooxy)methyl]-2H-pyrido[3,2-b]-1,4-oxazin-3(4H)-one], for which the “drug-related compound observed in human plasma” value is given as “only small amounts”.
